This is an account of results in patent publication US11046854B2, “Slippery liquid-infused porous surfaces that prevent microbial surface fouling” (Wisconsin Alumni Research Foundation, priority 2016, dated 2021).

The structures appear in SMILES notation.

Type in all cases: physicochemical
Data set [1] in a line: Water droplet sliding velocity on compound-loaded SLIPS. The following applies: 10 μL water droplets, SLIPS loaded with the compound, tilt angle 10°; mean and standard error of six replicates. The source says:
All QSI-loaded SLIPS used in this study contained 240 nmol of compound per substrate and all DMABI-loaded SLIPS contained 300 nmol of compound.

Data set [2] is described as follows: Release of QSIs and DMABI from SLIPS in PBS at 37° C. (UV/vis). The procedure:
Small Molecule Loading, Oil Infusion, and Characterization of Release. […] Immediately prior to use, loaded films were infused with silicone oil (for melting point and boiling point apparatuses; Sigma-Aldrich) by placing a 2.25 μL droplet of oil on each side and allowing the oil to spread over the entire surface. Excess oil was removed from the surface using tissue paper. […] At designated time points, substrates were removed from the incubation buffer and placed in fresh buffer before returning to the incubator. The release of the loaded agents into the incubation buffer was characterized using a UV/vis spectrophotometer.
Characterization of the release of QSIs and biofilm inhibitors from SLIPS.

Data set [3] can be described thus: Solubility of triclosan in silicone oil.

Turning to `Cc1cc2nc(N)[nH]c2cc1C` [DMABI, Dimethyl-2-aminobenzamidazole], the “Slide Velocity” value in data set [1] came out at 7.4 ± 0.2 mm/s. Further, in data set [2] (after the first 24 hours), the loaded compound released result is “approximately 40%”. Further, in data set [2] (over the next 150 hours), the additional compound released result is reported as “approximately 40%”.
`Oc1cc(Cl)ccc1Oc1ccc(Cl)cc1Cl` [Triclosan, 5-chloro-2-(2,4-dichlorophenoxy)phenol]: the “solubility in silicone oil” value in data set [3] is reported as “soluble in silicone oil”.
